Assays:
A2780wt cells [1] = assay: Annexin V/PI staining and FACS analysis, A2780wt; assay type: cell-based; conditions: w/o BGs, 25 µM, 24 h; for late apoptosis/ necrosis: Annexin V positive/PI positive; for early apoptosis: percentage of cells (Annexin V positive/PI negative)
Description: Therefore, we aimed to evaluate the apoptosis and necrosis inducing potential of complexes 1–4 via a fluorescent‐activated cell sorting (FACS) analysis with Annexin V/propidium iodide (PI) staining in A2780wt and A2780cis cells. Cells were treated for 24 h with both the free and BG‐loaded forms of each compound at 25 µM. Carboplatin (50 µM) served as a reference.
To evaluate the mode of cell death, a FACS measurement after staining with Annexin V and PI was conducted. First, 0.3 × 10^6 A2780wt or A2780cis cells were seeded into 12‐well plates and were allowed to adhere for 24 h. The compounds were added at 25 µM, either diluted from a freshly prepared DMF stock solution (0.1% DMF) or freshly thawed when loaded in BGs. After 24 h of incubation, the cells were harvested with accutase and washed with PBS. The cells were then resuspended in 200 µL of PBS each and 1 µL of PI solution (Sigma‐Aldrich, Taufkirchen, Germany) and 1 µL of Annexin V‐FITC (MabTag GmbH, Friesoythe, Germany) were added to each sample. These were then incubated for 20 min at rt under light‐protected conditions and afterward transferred onto ice. The percentage of apoptotic cells was determined by analyzing Annexin V positive /PI negative cells using a BD LSRFortessa flow cytometer and BD FACSDiva software (both BD Biosciences, San Jose, CA, USA). The apoptosis analysis included the evaluation of early apoptosis (Annexin V positive/PI negative) and late apoptosis/necrosis (Annexin V positive /PI positive).

HS‐5 cells = assay: MTT assay, HS‐5 cells; assay type: cell-based; conditions: 72 h exposure, nonmalignant bone marrow stromal cells
Description: Carboplatin, a second‐generation platinum drug commonly used as part of standard first‐line chemotherapy for ovarian carcinoma, was examined as a reference compound due to its clinical relevance. Additionally, the nonmalignant bone marrow stromal cell line HS‐5 was included as a control to assess specificity of the complexes toward cancer cells.
The exponentially growing cells were seeded at a density of 8 × 10^3 cells/well (A2780wt/cis) or 1 × 10^4 cells/well (HS‐5), respectively, into clear flat‐bottom 96‐well plates in triplicates. Following 24 h of incubation for the adherence of the cells at 37°C in a humidified atmosphere (5% CO2/95% air), the test compounds were added. […] For the evaluation of the cell growth inhibition by the compounds loaded in BGs, the BG suspensions were directly diluted in RPMI 1640 to the desired testing concentration (25 µM). After another 72 h of incubation, the cellular metabolic activity was measured as an indicator of cell viability employing an MTT assay. Hereby, 20 µL of a 5 mg/mL MTT solution was added to each well, respectively. After 3 h of incubation, the medium was discarded, and the formazan crystals formed were dissolved in DMSO for 15 min with gentle shaking. Afterward, the optical density (OD) was measured at 595 and 620 nm, respectively on an EnSpire Multimode Plate Reader (revvity, Waltham, MA, USA). The OD at 620 nm was subtracted from the OD at 595 nm. The OD of the medium was subtracted to exclude the unspecific staining caused by FCS‐containing medium. Cells treated with vehicle control (0.1% DMF) only were set at 100% metabolic activity. The IC50 values were calculated with Prism 8.0 (GraphPad Software Inc., Boston, MA, USA) using nonlinear regression. Significance was evaluated via a one sample t‐test performed with Prism 8.0.

Water solubility = assay type: physicochemical
A2780wt cells [2] = assay: Comet assay (intracellular DNA damage); assay type: cell-based; conditions: 50 µM, 48 h incubation
Description: Given that platinum‐based drugs are known to commonly induce DNA damage, a comet assay was conducted using A2780wt cells. This assay detects DNA damage such as DNA single/double strand breaks and DNA fragmentation, a common feature of apoptosis. […] DMF (0.1%)‐treated cells were used as a negative control to establish baseline DNA integrity.
Cellular DNA damage can be visualized by employing a comet assay, which is a single cell gel electrophoresis assay. Hereby, A2780wt cells were seeded at a density of 2 × 10^6 into 25 cm^2 flasks. After letting the cells adhere for 24 h in a humidified atmosphere, the cell culture medium was exchanged for medium containing the respective compound. The cells were then incubated for 48 h with the platinum complexes or 4 h with etoposide, respectively. After incubation, the cell growth was stopped by removing the compound‐containing medium, washing the cells with phosphate‐buffered saline (PBS) and detaching them with a rubber policeman. The detached cells were then centrifuged at 700g for 2 min and the resulting pellet was then washed with 5 mL of PBS. After that, the cells were adjusted to a concentration of 1 × 10^6 cells/mL and were resuspended in ice cold PBS. A total of 75 µL of liquified agarose per condition was transferred onto the slide to create a base layer. This base layer was solidified by transferring the slide to 4°C for 15 min. Afterwards, 10 µL of the above‐mentioned cell suspension in PBS were mixed with 90 µL of agarose. A total of 75 µL of this was added to each base layer, respectively. This layer was also allowed to solidify at 4°C for 15 min. The slide was then transferred to a small basin which contained pre‐chilled lysis buffer (14.6 g NaCl, 20 mL EDTA solution, 10 mL lysis solution, 10 mL DMSO, 60 mL deionized H2O), where it remained for 45 min in the dark at 4°C. The lysis buffer was then aspirated and exchanged with a pre‐chilled alkaline solution (1.2 g NaOH, 0.2 mL EDTA solution, 100 mL deionized H2O), where it remained for further 30 min in the dark at 4°C. The slide was then transferred to a horizontal electrophoresis chamber which was filled with cold alkaline solution. The electrophoresis conditions were set to 1.5 V/cm and 300 mA for 20 min. After the electrophoresis, the slide was transferred into a small basin containing pre‐chilled, deionized H2O. After 2 min, the water was aspirated and this washing step was repeated twice more. After the final rinse, the slide was submerged in 70% ethanol for 5 min. Once the slide has dried, 100 µL of diluted Vista Green DNA Dye was added to each well. After 15 min of incubation, the slides were analyzed on an IX‐70 epifluorescence microscope (Olympus, Shinjuku, Japan) using a FITC filter.

Compound	late apoptosis/ necrosis (A2780wt cells [1])	early apoptosis (A2780wt cells [1])	IC50 (HS‐5 cells)	water solubility (Water solubility)	intracellular DNA damage (comet formation) (A2780wt cells [2])
CCN1[C]([Pt]([O]C(C)=O)([O]C(C)=O)[SH](C)(C)=O)N(CC)c2ccccc21 [Compound 1, (SP‐4‐2)‐Diacetato(1,3‐diethylbenzimidazol‐2‐ylidene)(dimethylsulfoxide)platinum(II)]	29.1 ± 2.56	15.9 ± 1.55	64.3 ± 8.2 µM	approximately 10 mg/mL	induced intracellular DNA damage
CCN1[C]([Pt]([O]C(=O)C(Cl)Cl)([O]C(=O)C(Cl)Cl)[SH](C)(C)=O)N(CC)c2ccccc21 [Compound 3, (SP‐4‐2)‐Bis(dichloroacetato)(1,3‐diethylbenzimidazol‐2‐ylidene)(dimethylsulfoxide)platinum(II)]	28.8 ± 2.50	15.3 ± 1.17	> 100 µM	< 500 µg/mL	induced intracellular DNA damage
(SP‐4‐2)‐Bis(dichloroacetato)bis(1,3‐diethylbenzimidazol‐2‐ylidene)platinum(II) [Compound 4]	46.9 ± 3.01	13.2 ± 0.22	37 ± 1.36 µM	< 500 µg/mL	induced intracellular DNA damage
(SP‐4‐2)‐Diacetatobis(1,3‐diethylbenzimidazol‐2‐ylidene)platinum(II) [Compound 2]	25.9 ± 5.70	9.37 ± 0.31	> 50 µM	around 3 mg/mL	did not show any evidence of comet formation
